Reference: the NIST ThermoML archive (doi:10.1021/je5002686)
Several values for one entry are separate records, joined by “and”; a condition that tells them apart may be missing. Equal values may be shown once.

Details: Liquid, Vibrating tube method

CCOC(F)(C(F)(F)C(F)(F)C(F)(F)F)C(F)(C(F)(F)F)C(F)(F)F (stereo not given) [2-trifluoromethyl-3-ethoxydodecafluorohexane]
Details | mass density
350 K, 40000 kPa | 1622.9 kg/m3 and 1622.8 kg/m3
350 K, 40010 kPa | 1622.7 kg/m3
350 K, 44990 kPa | 1632.7 kg/m3 and 1632.5 kg/m3
350 K, 45000 kPa | 1632.5 kg/m3
350 K, 49990 kPa | 1641.9 kg/m3 and 1641.7 kg/m3
350 K, 50000 kPa | 1641.8 kg/m3
370 K, 490 kPa | 1465.7 kg/m3 and 1465.9 kg/m3
370 K, 500 kPa | 1466 kg/m3
370 K, 1000 kPa | 1468.6 kg/m3 and 1468.4 kg/m3 and 1468.5 kg/m3
370 K, 1990 kPa | 1473.6 kg/m3 and 1473.5 kg/m3
370 K, 2000 kPa | 1473.4 kg/m3
370 K, 2990 kPa | 1478.5 kg/m3
370 K, 3000 kPa | 1478.2 kg/m3 and 1478.5 kg/m3
370 K, 3990 kPa | 1483.1 kg/m3
370 K, 4000 kPa | 1483.1 kg/m3 and 1483 kg/m3
370 K, 4990 kPa | 1487.6 kg/m3
370 K, 5000 kPa | 1487.5 kg/m3 and 1487.6 kg/m3
370 K, 10000 kPa | 1508.2 kg/m3 and 1507.9 kg/m3 and 1508.1 kg/m3
370 K, 14990 kPa | 1526 kg/m3 and 1525.8 kg/m3
370 K, 19990 kPa | 1541.7 kg/m3 and 1541.8 kg/m3
370 K, 20000 kPa | 1541.9 kg/m3
370 K, 25000 kPa | 1556.3 kg/m3 and 1556.1 kg/m3 and 1556.2 kg/m3
370 K, 30000 kPa | 1569.5 kg/m3 and 1569.2 kg/m3 and 1569.4 kg/m3
370 K, 34990 kPa | 1581.5 kg/m3
370 K, 35000 kPa | 1581.7 kg/m3 and 1581.4 kg/m3
370 K, 40000 kPa | 1593 kg/m3 and 1592.7 kg/m3 and 1592.8 kg/m3
370 K, 45000 kPa | 1603.6 kg/m3 and 1603.3 kg/m3 and 1603.4 kg/m3
370 K, 49990 kPa | 1613.2 kg/m3 and 1613.4 kg/m3
370 K, 50020 kPa | 1613.6 kg/m3
390 K, 490 kPa | 1417.9 kg/m3
390 K, 500 kPa | 1417.8 kg/m3 and 1417.7 kg/m3
390 K, 990 kPa | 1420.9 kg/m3 and 1421.1 kg/m3
390 K, 1000 kPa | 1421.1 kg/m3
390 K, 1990 kPa | 1427.2 kg/m3 and 1427.4 kg/m3
390 K, 2000 kPa | 1427.1 kg/m3
390 K, 3000 kPa | 1433.2 kg/m3 and 1433.1 kg/m3
390 K, 3010 kPa | 1433.3 kg/m3
390 K, 3990 kPa | 1438.8 kg/m3 and 1438.7 kg/m3 and 1438.9 kg/m3
390 K, 5000 kPa | 1444.3 kg/m3 and 1444.1 kg/m3 and 1444.4 kg/m3
390 K, 10000 kPa | 1468.4 kg/m3 and 1468.3 kg/m3 and 1468.5 kg/m3
390 K, 14990 kPa | 1488.9 kg/m3 and 1489 kg/m3
390 K, 15000 kPa | 1488.9 kg/m3
390 K, 19990 kPa | 1506.8 kg/m3 and 1507 kg/m3
390 K, 20000 kPa | 1507 kg/m3
390 K, 25000 kPa | 1523 kg/m3 and 1522.9 kg/m3 and 1523.1 kg/m3
390 K, 29990 kPa | 1537.6 kg/m3
390 K, 30000 kPa | 1537.6 kg/m3 and 1537.4 kg/m3
390 K, 35000 kPa | 1550.9 kg/m3 and 1550.8 kg/m3 and 1551 kg/m3
390 K, 40000 kPa | 1563.2 kg/m3 and 1563.1 kg/m3 and 1563.3 kg/m3
390 K, 44990 kPa | 1574.8 kg/m3
390 K, 45000 kPa | 1574.7 kg/m3 and 1574.6 kg/m3
390 K, 49980 kPa | 1585.3 kg/m3
390 K, 49990 kPa | 1585.5 kg/m3
410 K, 990 kPa | 1370.5 kg/m3
410 K, 3990 kPa | 1392.5 kg/m3
410 K, 4000 kPa | 1392.7 kg/m3
410 K, 4990 kPa | 1399.3 kg/m3
410 K, 10000 kPa | 1427.9 kg/m3
410 K, 15000 kPa | 1451.6 kg/m3 and 1451.5 kg/m3
410 K, 19990 kPa | 1471.8 kg/m3
410 K, 20000 kPa | 1472 kg/m3
410 K, 24990 kPa | 1489.9 kg/m3 and 1489.7 kg/m3
410 K, 29990 kPa | 1506 kg/m3
410 K, 30000 kPa | 1505.8 kg/m3
410 K, 34990 kPa | 1520.6 kg/m3
410 K, 35000 kPa | 1520.5 kg/m3
410 K, 40000 kPa | 1534 kg/m3 and 1533.9 kg/m3
410 K, 45000 kPa | 1546.4 kg/m3
410 K, 45010 kPa | 1546.3 kg/m3
410 K, 50000 kPa | 1558 kg/m3
410 K, 50020 kPa | 1557.9 kg/m3
430 K, 500 kPa | 1310.6 kg/m3 and 1310.4 kg/m3
430 K, 1000 kPa | 1316.1 kg/m3 and 1315.9 kg/m3 and 1316.2 kg/m3
430 K, 2000 kPa | 1326.2 kg/m3 and 1326 kg/m3 and 1326.3 kg/m3
430 K, 3000 kPa | 1335.6 kg/m3 and 1335.4 kg/m3 and 1335.7 kg/m3
430 K, 4000 kPa | 1344.3 kg/m3 and 1344.1 kg/m3
430 K, 4990 kPa | 1352.1 kg/m3 and 1352.4 kg/m3
430 K, 5000 kPa | 1352.4 kg/m3
430 K, 9990 kPa | 1386.6 kg/m3 and 1386.4 kg/m3
430 K, 14990 kPa | 1413.9 kg/m3
430 K, 15000 kPa | 1413.8 kg/m3 and 1414 kg/m3
430 K, 19990 kPa | 1436.8 kg/m3 and 1437 kg/m3
430 K, 20000 kPa | 1436.9 kg/m3
430 K, 24990 kPa | 1456.9 kg/m3
430 K, 25000 kPa | 1456.9 kg/m3 and 1456.8 kg/m3
430 K, 29990 kPa | 1474.6 kg/m3
430 K, 30000 kPa | 1474.7 kg/m3
430 K, 30010 kPa | 1474.5 kg/m3
430 K, 34990 kPa | 1490.4 kg/m3
430 K, 35000 kPa | 1490.6 kg/m3
430 K, 40000 kPa | 1505.2 kg/m3 and 1505 kg/m3
430 K, 40010 kPa | 1505.2 kg/m3
430 K, 45000 kPa | 1518.6 kg/m3 and 1518.4 kg/m3
430 K, 49960 kPa | 1530.9 kg/m3
430 K, 49990 kPa | 1531 kg/m3
430 K, 50000 kPa | 1530.9 kg/m3
450 K, 1990 kPa | 1269.4 kg/m3
450 K, 3980 kPa | 1292.6 kg/m3
450 K, 4000 kPa | 1292.9 kg/m3
450 K, 4990 kPa | 1302.9 kg/m3 and 1303 kg/m3
450 K, 10000 kPa | 1344.2 kg/m3 and 1344.1 kg/m3 and 1344.3 kg/m3
450 K, 14980 kPa | 1375.6 kg/m3
450 K, 14990 kPa | 1375.9 kg/m3
450 K, 15000 kPa | 1375.9 kg/m3
450 K, 19990 kPa | 1401.9 kg/m3 and 1401.7 kg/m3
450 K, 25000 kPa | 1424.1 kg/m3 and 1424 kg/m3
450 K, 29990 kPa | 1443.6 kg/m3 and 1443.4 kg/m3
450 K, 30000 kPa | 1443.6 kg/m3
450 K, 34990 kPa | 1460.8 kg/m3 and 1461 kg/m3
450 K, 35000 kPa | 1461 kg/m3
450 K, 39990 kPa | 1476.8 kg/m3
450 K, 40000 kPa | 1476.6 kg/m3 and 1476.8 kg/m3
450 K, 45000 kPa | 1491.2 kg/m3 and 1491.1 kg/m3
450 K, 49980 kPa | 1504.5 kg/m3
450 K, 49990 kPa | 1504.5 kg/m3
450 K, 50000 kPa | 1504.4 kg/m3
470 K, 5010 kPa | 1250.5 kg/m3
470 K, 9990 kPa | 1300.6 kg/m3 and 1300.8 kg/m3
470 K, 10010 kPa | 1300.7 kg/m3
470 K, 14990 kPa | 1337.3 kg/m3
470 K, 15000 kPa | 1337.3 kg/m3 and 1337.5 kg/m3
470 K, 19990 kPa | 1366.6 kg/m3
470 K, 20000 kPa | 1366.7 kg/m3 and 1366.9 kg/m3
470 K, 25000 kPa | 1391.4 kg/m3 and 1391.3 kg/m3 and 1391.5 kg/m3
470 K, 29990 kPa | 1412.7 kg/m3
470 K, 30000 kPa | 1412.8 kg/m3 and 1412.9 kg/m3
470 K, 34990 kPa | 1431.7 kg/m3 and 1431.8 kg/m3
470 K, 35010 kPa | 1431.7 kg/m3
470 K, 39990 kPa | 1448.8 kg/m3
470 K, 40000 kPa | 1448.7 kg/m3
470 K, 44990 kPa | 1464.2 kg/m3 and 1464.1 kg/m3
470 K, 45000 kPa | 1464.3 kg/m3
470 K, 49990 kPa | 1478.4 kg/m3
470 K, 50000 kPa | 1478.6 kg/m3
470 K, 50010 kPa | 1478.5 kg/m3
